Values joined by “and” are separate entries in the source; they are usually repeats but may differ in a detail not shown here. Equal entries are not always repeated. Where two headings read alike, the source gives them in different places.
Tests used:
cGMP [1] = experiment: Intracellular cGMP; type: cell-based, human; conditions: for intracellular level of cGMP: PAH-SMCs, 0.1–0.001 μM
phospho-MYPT1 [2] = experiment: Myosin phosphatase-targeting protein phosphorylation; type: cell-based, human; conditions: PAH-SMCs, 1.0 μM, 24 h
phospho-MYPT1 [3] = experiment: as above; type: cell-based, human; conditions: PAH-ECs, 1.0 μM
N-SMC = experiment: Antiproliferative effects, Cell Counting Kit-8, N-SMC; type: cell-based, human
cGMP [4] = experiment: Intracellular cGMP; type: cell-based, human; conditions: PAH-ECs
PAH-EC = experiment: cells; type: cell-based; conditions: Homo sapiens, 24 h
[5] = Pharmacokinetics in rat plasma after intravenous administration; type: in vivo, Sprague Dawley rats
PAH-SMC = experiment: Antiproliferative effects, Cell Counting Kit-8, PAH-SMC; type: cell-based, human
ROCK-II = ROCK-II (Homo sapiens, UniProt O75116); experiment: Cell-free Rho-associated kinase activity; type: biochemical
Sequence of ROCK-II (O75116 whole entry, species assumed): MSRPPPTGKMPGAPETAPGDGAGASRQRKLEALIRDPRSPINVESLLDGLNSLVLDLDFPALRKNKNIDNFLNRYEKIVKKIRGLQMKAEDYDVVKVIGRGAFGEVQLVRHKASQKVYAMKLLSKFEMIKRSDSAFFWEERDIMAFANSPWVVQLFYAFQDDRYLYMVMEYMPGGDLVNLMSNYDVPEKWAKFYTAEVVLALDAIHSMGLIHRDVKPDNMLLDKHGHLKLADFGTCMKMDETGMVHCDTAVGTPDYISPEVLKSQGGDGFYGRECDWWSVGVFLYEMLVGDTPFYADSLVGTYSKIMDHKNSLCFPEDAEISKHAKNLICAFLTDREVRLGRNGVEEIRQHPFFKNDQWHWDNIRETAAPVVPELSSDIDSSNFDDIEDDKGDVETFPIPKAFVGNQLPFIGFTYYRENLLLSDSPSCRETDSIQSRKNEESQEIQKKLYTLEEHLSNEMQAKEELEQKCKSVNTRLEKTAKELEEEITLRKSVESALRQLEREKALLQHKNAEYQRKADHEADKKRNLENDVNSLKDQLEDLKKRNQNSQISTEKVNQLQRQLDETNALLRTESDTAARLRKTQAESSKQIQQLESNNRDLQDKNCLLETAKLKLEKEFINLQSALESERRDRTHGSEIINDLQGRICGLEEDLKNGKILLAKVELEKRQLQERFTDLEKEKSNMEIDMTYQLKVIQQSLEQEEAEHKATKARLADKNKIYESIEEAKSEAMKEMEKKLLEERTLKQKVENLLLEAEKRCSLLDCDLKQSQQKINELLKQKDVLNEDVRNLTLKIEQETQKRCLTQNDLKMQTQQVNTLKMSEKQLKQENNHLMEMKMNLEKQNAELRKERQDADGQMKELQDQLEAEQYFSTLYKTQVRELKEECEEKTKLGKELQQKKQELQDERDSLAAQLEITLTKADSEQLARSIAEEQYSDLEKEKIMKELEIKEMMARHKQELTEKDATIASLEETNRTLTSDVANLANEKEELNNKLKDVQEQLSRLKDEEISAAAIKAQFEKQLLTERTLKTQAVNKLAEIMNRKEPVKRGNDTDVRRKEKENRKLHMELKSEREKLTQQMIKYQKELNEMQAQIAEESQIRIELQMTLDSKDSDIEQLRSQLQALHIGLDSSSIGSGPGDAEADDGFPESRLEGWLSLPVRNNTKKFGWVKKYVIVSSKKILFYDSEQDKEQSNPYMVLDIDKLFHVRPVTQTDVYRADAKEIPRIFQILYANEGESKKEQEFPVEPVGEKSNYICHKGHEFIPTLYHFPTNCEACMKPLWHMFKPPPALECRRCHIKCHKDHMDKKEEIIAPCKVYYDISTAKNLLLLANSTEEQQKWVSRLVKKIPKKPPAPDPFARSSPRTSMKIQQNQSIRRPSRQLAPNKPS

PAH-SMCs = experiment: Bioreduction of FasPRO in cultured PAH-SMCs; type: cell-based, human
PAH-ECs = experiment: Bioreduction of FasPRO in cultured PAH-ECs; type: cell-based, human; conditions: 24 h incubation
[6] = biological target: T1, bactosomal human NADPH-CYP reductase (Homo sapiens, UniProt P16435); experiment: Enzymatic reduction assay of FasPRO, LC-MS/MS; type: in vitro ADME
T1 sequence (P16435 1-677): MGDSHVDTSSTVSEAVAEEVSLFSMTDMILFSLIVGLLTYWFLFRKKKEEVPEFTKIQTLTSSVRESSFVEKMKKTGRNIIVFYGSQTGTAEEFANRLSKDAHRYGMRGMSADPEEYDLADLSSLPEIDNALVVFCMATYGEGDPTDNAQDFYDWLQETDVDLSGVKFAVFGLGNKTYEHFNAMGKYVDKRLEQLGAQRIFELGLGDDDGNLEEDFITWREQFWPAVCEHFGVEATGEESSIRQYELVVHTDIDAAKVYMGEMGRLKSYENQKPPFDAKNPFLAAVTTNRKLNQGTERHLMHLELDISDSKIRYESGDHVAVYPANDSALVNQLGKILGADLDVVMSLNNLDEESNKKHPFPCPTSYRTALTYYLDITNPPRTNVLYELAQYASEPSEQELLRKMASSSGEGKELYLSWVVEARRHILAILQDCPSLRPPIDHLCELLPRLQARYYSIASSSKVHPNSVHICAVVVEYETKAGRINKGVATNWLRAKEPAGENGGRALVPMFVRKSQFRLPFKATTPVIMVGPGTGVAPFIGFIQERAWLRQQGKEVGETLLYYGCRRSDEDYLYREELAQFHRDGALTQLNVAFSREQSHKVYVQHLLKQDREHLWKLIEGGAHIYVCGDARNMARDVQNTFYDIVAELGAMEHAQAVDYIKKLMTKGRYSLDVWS

[7] = Homo sapiens, 24 h, read-out: N-SMC (IC50) Normoxia
[8] = read-out: PAH-EC (IC50) Hypoxia
[9] = read-out: PAH-EC (IC50) Normoxia
[10] = male, Sprague-Dawley, rat, plasma, iv, 3 mg/kg
[11] = Homo sapiens, 24 h, read-out: PAH-SMC (IC50) Normoxia, normoxia, 24 h treatment

| Structure (SMILES) | intracellular level of cGMP (cGMP [1]; hypoxia) | intracellular level of cGMP (cGMP [1]; normoxia) | hypoxia-driven phosphorylation of MYPT1 (phospho-MYPT1 [2]) | hypoxia-driven phosphorylation of MYPT1 (phospho-MYPT1 [3]) | IC50 (N-SMC; [7]) | intracellular level of cGMP (cGMP [4]; hypoxia) | intracellular level of cGMP (cGMP [4]; normoxia) | IC50 (PAH-EC; [8]) | IC50 (PAH-EC; [9]) | AUC(0-inf) [5, 10] | C0 [5, 10] | Vd [5, 10] | clearance [5, 10] | IC50 (PAH-SMC; [11]) | further results |
| --- | --- | --- | --- | --- | --- | --- | --- | --- | --- | --- | --- | --- | --- | --- | --- |
| O=S(=O)(c1cccc2cnccc12)N1CCCNCC1 [Fasudil, reference compound] | dose-dependently increased | dose-dependently increased | reversed the process | reversed the process | 2.8 ± 0.6 µM | dose-dependently increased | dose-dependently increased | 34.1 ± 5.9 µM | 16 ± 1.2 µM | 363 ± 54.1 ng·h/mL | 1360 ± 368 ng/mL | 0.9 ± 0.2 L/kg | 46.7 mL/min/kg | 4.9 µM | increase in cGMP levels in PAH-SMCs compared to PAH-ECs (cGMP [1]; fasudil preincubation): 5 fold; IC50 (N-SMC; read-out: N-SMC (IC50) Hypoxia, hypoxia (0.1% O2), 24 h treatment): 1.68 ± 0.5 µM; IC50 (PAH-SMC; read-out: PAH-SMC (IC50) Normoxia, normoxia, 24 h treatment): 4.95 ± 1.3 µM |
| O=c1[nH]ccc2c(S(=O)(=O)N3CCCNCC3)cccc12 [FasOH, reference compound] |  |  |  |  |  |  |  |  |  |  |  |  |  |  | maximum plasma concentration (Cmax) of FasOH as share of that of the parent drug ([5]; rats given intravenous fasudil 3 mg/kg): 37~52%; inhibition of the kinase activity of ROCK-II (comparison in words) (ROCK-II; 1.0 mU ROCK-II, 10 μM ATP): equal potency; IC50 (PAH-SMC; Homo sapiens, 24 h, read-out: PAH-SMC (IC50) Hypoxia): 10.3 ± 2.6 µM; IC50 (PAH-SMC; Homo sapiens, 24 h, read-out: PAH-SMC (IC50) Normoxia): 6.9 µM |
| O=[N+]([O-])c1ccc(COc2nccc3c(S(=O)(=O)N4CCCNCC4)cccc23)cc1 [FasPRO, 5-((1,4-diazepan-1-yl)sulfonyl)-1-((4-nitrobenzyl)oxy)isoquinoline] | dose-dependently increased | did not improve cGMP secretion | reversed the process | reversed the process | 248 ± 28.9 µM | dose-dependently increased | did not improve cGMP secretion | 25.4 ± 4.8 µM | 2720 ± 50.9 µM | 951 ± 137 ng·h/mL | 471 ± 122 ng/mL | 10.1 ± 4 L/kg | 18.3 mL/min/kg | 53.5 µM | activation of FasPRO (PAH-SMCs; 0.1% O2): activated; activation of FasPRO (PAH-SMCs; 1% and 10% O2): not at 1% and 10% O2; fragments of FasPRO after bioreduction in cell lysate (PAH-SMCs; 12 h, hypoxia): FasOH (major fragment) or fasudil (minor fragment); content of FasPRO in cells (PAH-SMCs; hypoxia, 24 h incubation, versus normoxia): decreased; fragmentation of FasPRO in cells (PAH-SMCs; normoxia, 24 h incubation): did not undergo significant fragmentation; content of FasPRO in cells (PAH-ECs; hypoxia, versus normoxia): decreased; fragmentation of FasPRO in cells (PAH-ECs; normoxia): did not undergo significant fragmentation; phospho-MYPT-1 level (phospho-MYPT1 [2]; normoxia): did not cause any changes; phospho-MYPT-1 level (phospho-MYPT1 [3]; normoxia): did not cause any changes; IC50 (N-SMC; Homo sapiens, 24 h, read-out: N-SMC (IC50) Hypoxia): 1.04 ± 0.1 µM; prodrug converted into FasOH or fasudil ([6]; hypoxia (0.1% O2), after 24 h of reaction): More than 60%; reduction of FasPRO by the reductase ([6]; normoxia, any of the time points): did not occur; terminal half-life of FasPRO relative to that of fasudil ([5]; Sprague-Dawley rats, intravenous, 3 mg/kg): 36 fold and ~ 36 fold; half-life ([5]; male, Sprague-Dawley, rat, plasma, iv, 3 mg/kg, t1/2, Sprague-Dawley rats): > 7 h; fasudil in the blood of FasPRO-treated rats ([5]; remaining two of four rats, FasPRO iv 3 mg/kg): not detectable; reduction in ROCK-II kinase activity on addition of the 4-nitrobenzyl group to the hydroxyl group of FasOH (ROCK-II; relative to FasOH): 15 fold; concentrations at which an antiproliferative effect was observed (PAH-SMC; normoxia, cells not given): > 100 µM |

Reference: paper PMC8378262 (Journal of controlled release : official journal of the …, 2021)
